Results: the NIST ThermoML archive (doi:10.1021/je400830w)

Columns and labels:
[1] = wn = mass fraction of the nth substance listed; conditions: 100 kPa, Liquid; for mass density: Vibrating tube method
[2] = refractive index (Na D-line) (dimensionless); wn = mass fraction of the nth substance listed; conditions: 100 kPa, Liquid, Standard Abbe refractometry

O=C([O-])[C@@H]1CCCN1.[Na+] [sodium L-prolinate] + O
Conditions	mass density, [1] [kg/m3]	refractive index, [2]	viscosity, [1] [mPa·s]
298.15 K, w1 = 0.05	1015.28	1.34005	1.16
298.15 K, w1 = 0.1	1033.9	1.34767	1.456
298.15 K, w1 = 0.2	1071.61	1.36337	2.292
298.15 K, w1 = 0.3	1109.81	1.37937	3.787
298.15 K, w1 = 0.4	1148.69	1.39604	5.56
303.15 K, w1 = 0.05	1013.73	1.33942	1.02
303.15 K, w1 = 0.1	1032.18	1.34706	1.267
303.15 K, w1 = 0.2	1069.51	1.36278	1.967
303.15 K, w1 = 0.3	1106.73	1.37869	3.327
303.15 K, w1 = 0.4	1145.79	1.39498	4.801
308.15 K, w1 = 0.05	1011.98	1.33879	0.9028
308.15 K, w1 = 0.1	1030.28	1.34633	1.114
308.15 K, w1 = 0.2	1067.29	1.36201	1.702
308.15 K, w1 = 0.3	1104.08	1.37768	2.923
308.15 K, w1 = 0.4	1142.83	1.39387	4.21
313.15 K, w1 = 0.05	1010.05	1.33802	0.8062
313.15 K, w1 = 0.1	1028.22	1.3456	0.984
313.15 K, w1 = 0.2	1064.94	1.36125	1.482
313.15 K, w1 = 0.3	1101.95	1.37678	2.509
313.15 K, w1 = 0.4	1139.8	1.39268	3.53
318.15 K, w1 = 0.05	1007.96	1.33724	0.7245
318.15 K, w1 = 0.1	1026.01	1.34502	0.8784
318.15 K, w1 = 0.2	1062.47	1.36042	1.309
318.15 K, w1 = 0.3	1099.31	1.37586	2.193
318.15 K, w1 = 0.4	1136.71	1.39154	2.997
323.15 K, w1 = 0.05	1005.72	1.33642	0.6556
323.15 K, w1 = 0.1	1023.66	1.34433	0.7874
323.15 K, w1 = 0.2	1059.89	1.35984	1.164
323.15 K, w1 = 0.3	1096.7	1.37526	1.94
323.15 K, w1 = 0.4	1133.56	1.39048	2.581
328.15 K, w1 = 0.05	1003.32	1.33569	0.5983
328.15 K, w1 = 0.1	1021.18	1.34373	0.7118
328.15 K, w1 = 0.2	1057.21	1.35931	1.038
328.15 K, w1 = 0.3	1092.78	1.37439	1.69
328.15 K, w1 = 0.4	1130.34	1.38912	2.241
333.15 K, w1 = 0.05	1000.79	1.33497	0.5454
333.15 K, w1 = 0.1	1018.58	1.34306	0.6471
333.15 K, w1 = 0.2	1054.42	1.35882	0.9221
333.15 K, w1 = 0.3	1090.33	1.37364	1.519
333.15 K, w1 = 0.4	1127.09	1.38795	1.96
338.15 K, w1 = 0.05	998.13	1.33424	0.5008
338.15 K, w1 = 0.1	1015.87	1.34256	0.593
338.15 K, w1 = 0.2	1051.56	1.35866	0.8345
338.15 K, w1 = 0.3	1088.2	1.37322	1.361
338.15 K, w1 = 0.4	1123.8	1.38677	1.728
343.15 K, w1 = 0.05	995.35	1.33349	0.4617
343.15 K, w1 = 0.1	1013.04	1.34213	0.5426
343.15 K, w1 = 0.2	1048.61	1.35842	0.7524
343.15 K, w1 = 0.3	1085.34	1.37279	1.203
343.15 K, w1 = 0.4	1120.46	1.38566	1.536
